The source of these data is ChEMBL document CHEMBL2069273, “Modulation of cofilin phosphorylation by inhibition of the Lim family kinases” (Bioorg Med Chem Lett, 2012).

The target in assay [1] is Dual specificity testis-specific protein kinase 1 (Homo sapiens, UniProt Q15569). Description: Inhibition of TESK1.
The target of assay [2] is T1, LIM domain kinase 1 (Homo sapiens, UniProt P53667). As to the kind of experiment: Inhibition of LIMK1-mediated cofilin Ser3 phosphorylation in human HT1080 cells. In kind it is cell-based. The following applies: HT-1080.
Target sequence in this assay (P53667 whole entry, looked up, the tested form may be a part): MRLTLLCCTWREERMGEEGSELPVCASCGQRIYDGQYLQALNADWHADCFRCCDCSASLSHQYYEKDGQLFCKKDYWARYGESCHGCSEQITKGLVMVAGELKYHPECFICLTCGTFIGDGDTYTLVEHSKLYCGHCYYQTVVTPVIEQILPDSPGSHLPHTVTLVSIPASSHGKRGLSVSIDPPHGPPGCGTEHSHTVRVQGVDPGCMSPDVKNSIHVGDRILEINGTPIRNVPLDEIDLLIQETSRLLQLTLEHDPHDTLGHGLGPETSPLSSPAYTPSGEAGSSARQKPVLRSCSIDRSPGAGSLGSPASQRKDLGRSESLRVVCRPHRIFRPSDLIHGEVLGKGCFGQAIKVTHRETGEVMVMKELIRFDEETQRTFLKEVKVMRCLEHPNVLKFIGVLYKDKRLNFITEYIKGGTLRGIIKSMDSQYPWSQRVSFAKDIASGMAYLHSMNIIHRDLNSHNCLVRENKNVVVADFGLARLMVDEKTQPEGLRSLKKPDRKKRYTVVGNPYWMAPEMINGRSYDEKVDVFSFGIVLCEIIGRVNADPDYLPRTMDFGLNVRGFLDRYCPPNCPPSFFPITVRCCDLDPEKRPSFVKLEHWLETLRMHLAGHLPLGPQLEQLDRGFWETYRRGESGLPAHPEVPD
For assay [3], the target named is Mitogen-activated protein kinase 14 (Homo sapiens, UniProt Q16539). Description: Binding affinity to human p38alpha.
Assay [4] relates to Mast/stem cell growth factor receptor Kit (Homo sapiens), P10721 [V559D]. As to the kind of experiment: Binding affinity to human KIT V559D mutant.
Assay [5] addresses T2, LIM domain kinase 2 (Homo sapiens, UniProt P53671). As to the kind of experiment: Inhibition of LIMK2.
Target sequence in this assay (P53671 whole entry, the tested form may be a part): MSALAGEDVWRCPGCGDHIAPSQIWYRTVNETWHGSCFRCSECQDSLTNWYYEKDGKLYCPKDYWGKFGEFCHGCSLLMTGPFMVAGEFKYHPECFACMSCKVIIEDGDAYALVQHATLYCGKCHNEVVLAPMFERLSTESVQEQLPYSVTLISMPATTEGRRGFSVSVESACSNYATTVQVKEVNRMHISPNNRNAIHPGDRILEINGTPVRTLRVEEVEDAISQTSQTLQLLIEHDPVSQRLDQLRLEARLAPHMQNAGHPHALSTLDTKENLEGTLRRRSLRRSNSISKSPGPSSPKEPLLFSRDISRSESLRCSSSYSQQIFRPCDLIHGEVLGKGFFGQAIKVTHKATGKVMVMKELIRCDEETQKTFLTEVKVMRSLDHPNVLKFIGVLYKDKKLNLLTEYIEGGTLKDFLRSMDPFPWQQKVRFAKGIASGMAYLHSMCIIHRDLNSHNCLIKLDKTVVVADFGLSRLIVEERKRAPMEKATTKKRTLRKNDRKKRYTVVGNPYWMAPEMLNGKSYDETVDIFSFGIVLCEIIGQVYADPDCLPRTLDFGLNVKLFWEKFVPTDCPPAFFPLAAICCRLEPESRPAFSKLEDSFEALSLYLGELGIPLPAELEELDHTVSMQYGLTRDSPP
Assay [6] addresses Mast/stem cell growth factor receptor Kit (Homo sapiens) (UniProt P10721). As to the kind of experiment: Binding affinity to human KIT.
Assay [7] concerns HT-1080. As to the kind of experiment: Induction of F-actin depolymerization in human HT1080 cells at 5 uM after 2 days by fluorescein-tagged phalloidin staining. It counts as functional, cell-based.
In assay [8] the target is Dual specificity testis-specific protein kinase 2 (Homo sapiens, UniProt Q96S53). Description: Inhibition of TESK2.
Assay [9] concerns the target T2, LIM domain kinase 2. As to the kind of experiment: Binding affinity to human LIMK2.
Target sequence in this assay (P53671 whole entry, looked up, the tested form may be a part): as the sequence (P53671 whole entry, the tested form may be a part) above
For assay [10], the system named is HT-1080. Description: Cytotoxicity against human HT1080 cells assessed as inhibition of thymidine incorporation. It counts as cell-based. In general terms: Incorporation of labelled thymidine or its analogues reports DNA synthesis.
The target of assay [11] is Angiopoietin-1 receptor (Homo sapiens) (UniProt Q02763). Description: Binding affinity to human TIE2.
The target in assay [12] is T2, LIM domain kinase 2. As to the kind of experiment: Inhibition of LIMK2-mediated cofilin Ser3 phosphorylation in human HT1080 cells. It counts as cell-based. To be noted: HT-1080.
Target sequence in this assay (P53671 whole entry, looked up, the tested form may be a part): as the sequence (P53671 whole entry, the tested form may be a part) above
Assay [13] deals with T3, Serine/threonine-protein kinase 36 (Homo sapiens) (UniProt Q9NRP7).
T3 sequence (whole entry): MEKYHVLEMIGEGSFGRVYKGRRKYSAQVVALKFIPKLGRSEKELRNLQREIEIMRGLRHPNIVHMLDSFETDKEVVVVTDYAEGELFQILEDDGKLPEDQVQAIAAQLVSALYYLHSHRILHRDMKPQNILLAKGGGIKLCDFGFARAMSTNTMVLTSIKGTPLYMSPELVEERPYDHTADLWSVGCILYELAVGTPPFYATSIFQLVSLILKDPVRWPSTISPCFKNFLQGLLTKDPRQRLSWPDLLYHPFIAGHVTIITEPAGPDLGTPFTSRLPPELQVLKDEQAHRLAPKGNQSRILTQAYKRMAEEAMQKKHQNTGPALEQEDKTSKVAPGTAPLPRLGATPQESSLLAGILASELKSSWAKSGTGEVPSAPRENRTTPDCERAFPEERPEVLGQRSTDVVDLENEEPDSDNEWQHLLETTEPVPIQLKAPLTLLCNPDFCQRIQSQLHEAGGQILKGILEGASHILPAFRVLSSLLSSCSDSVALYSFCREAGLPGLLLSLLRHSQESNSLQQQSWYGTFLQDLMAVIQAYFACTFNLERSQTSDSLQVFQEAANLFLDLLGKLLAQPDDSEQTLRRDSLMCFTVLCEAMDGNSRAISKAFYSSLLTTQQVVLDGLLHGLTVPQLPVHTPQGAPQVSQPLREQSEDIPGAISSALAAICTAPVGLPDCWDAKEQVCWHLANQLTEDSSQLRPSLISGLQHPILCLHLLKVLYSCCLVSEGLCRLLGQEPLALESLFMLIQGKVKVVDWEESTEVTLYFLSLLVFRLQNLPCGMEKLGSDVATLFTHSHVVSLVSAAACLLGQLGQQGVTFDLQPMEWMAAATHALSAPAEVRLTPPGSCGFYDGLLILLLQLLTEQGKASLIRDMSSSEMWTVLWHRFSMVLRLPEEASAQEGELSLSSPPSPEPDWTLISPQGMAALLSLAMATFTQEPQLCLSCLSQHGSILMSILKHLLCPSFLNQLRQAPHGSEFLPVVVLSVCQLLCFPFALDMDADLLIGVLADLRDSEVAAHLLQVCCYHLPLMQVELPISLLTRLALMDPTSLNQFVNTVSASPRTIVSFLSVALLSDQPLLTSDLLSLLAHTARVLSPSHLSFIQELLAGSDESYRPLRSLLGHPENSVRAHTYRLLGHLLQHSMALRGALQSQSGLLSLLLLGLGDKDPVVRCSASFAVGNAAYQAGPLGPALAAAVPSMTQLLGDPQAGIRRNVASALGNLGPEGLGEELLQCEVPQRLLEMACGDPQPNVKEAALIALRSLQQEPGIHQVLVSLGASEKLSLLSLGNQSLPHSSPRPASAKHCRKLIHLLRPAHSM
As to the kind of experiment: Binding affinity to human fused kinase.

Assay [14] deals with T4, Activin receptor type-1B (Homo sapiens) (UniProt P36896).
T4 sequence (whole entry): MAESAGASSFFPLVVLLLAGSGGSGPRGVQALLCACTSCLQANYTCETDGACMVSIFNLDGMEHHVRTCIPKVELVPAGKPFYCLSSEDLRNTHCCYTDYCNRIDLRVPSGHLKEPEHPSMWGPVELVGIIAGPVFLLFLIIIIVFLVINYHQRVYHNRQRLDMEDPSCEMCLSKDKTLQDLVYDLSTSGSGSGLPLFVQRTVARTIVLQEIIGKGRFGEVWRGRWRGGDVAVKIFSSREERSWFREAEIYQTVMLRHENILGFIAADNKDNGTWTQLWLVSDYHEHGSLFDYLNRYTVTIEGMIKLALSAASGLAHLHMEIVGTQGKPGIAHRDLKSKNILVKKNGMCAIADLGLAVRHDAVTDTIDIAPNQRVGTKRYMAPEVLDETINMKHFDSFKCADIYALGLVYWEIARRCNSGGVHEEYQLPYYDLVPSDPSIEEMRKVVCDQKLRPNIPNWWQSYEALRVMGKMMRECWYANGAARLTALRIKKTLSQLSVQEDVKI
As to the kind of experiment: Binding affinity to human Alk4.

For assay [15], the target named is Epithelial discoidin domain-containing receptor 1 (Homo sapiens) (UniProt Q08345). Description: Binding affinity to human DDR1.
For assay [16], the target named is T5, TGF-beta receptor type-1 (Homo sapiens) (UniProt P36897).
T5 sequence (whole entry): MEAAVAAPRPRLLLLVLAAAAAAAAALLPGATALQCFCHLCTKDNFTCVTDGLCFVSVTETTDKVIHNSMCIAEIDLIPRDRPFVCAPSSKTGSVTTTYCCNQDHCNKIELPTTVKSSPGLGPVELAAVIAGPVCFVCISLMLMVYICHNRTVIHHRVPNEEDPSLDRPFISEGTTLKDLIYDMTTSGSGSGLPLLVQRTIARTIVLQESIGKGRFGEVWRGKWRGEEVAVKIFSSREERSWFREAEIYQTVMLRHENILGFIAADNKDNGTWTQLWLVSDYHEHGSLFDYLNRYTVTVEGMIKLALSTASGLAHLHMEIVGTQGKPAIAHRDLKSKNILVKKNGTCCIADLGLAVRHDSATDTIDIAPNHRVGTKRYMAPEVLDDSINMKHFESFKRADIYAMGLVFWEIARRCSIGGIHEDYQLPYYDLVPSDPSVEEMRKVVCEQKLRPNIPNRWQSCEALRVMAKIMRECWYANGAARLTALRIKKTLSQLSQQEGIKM
Description: Binding affinity to human TGFBR1.

In assay [17] the target is T1, LIM domain kinase 1. As to the kind of experiment: Inhibition of LIMK1.
Target sequence in this assay (P53667 whole entry, the tested form may be a part): as the sequence (P53667 whole entry, looked up, the tested form may be a part) above

Calls of active or inactive are those of the source. No cut-off for these calls is given here. Some results are limits rather than exact numbers.

Dual specificity testis-specific protein kinase 1, sequence (Q15569 whole entry, the tested form may be a part): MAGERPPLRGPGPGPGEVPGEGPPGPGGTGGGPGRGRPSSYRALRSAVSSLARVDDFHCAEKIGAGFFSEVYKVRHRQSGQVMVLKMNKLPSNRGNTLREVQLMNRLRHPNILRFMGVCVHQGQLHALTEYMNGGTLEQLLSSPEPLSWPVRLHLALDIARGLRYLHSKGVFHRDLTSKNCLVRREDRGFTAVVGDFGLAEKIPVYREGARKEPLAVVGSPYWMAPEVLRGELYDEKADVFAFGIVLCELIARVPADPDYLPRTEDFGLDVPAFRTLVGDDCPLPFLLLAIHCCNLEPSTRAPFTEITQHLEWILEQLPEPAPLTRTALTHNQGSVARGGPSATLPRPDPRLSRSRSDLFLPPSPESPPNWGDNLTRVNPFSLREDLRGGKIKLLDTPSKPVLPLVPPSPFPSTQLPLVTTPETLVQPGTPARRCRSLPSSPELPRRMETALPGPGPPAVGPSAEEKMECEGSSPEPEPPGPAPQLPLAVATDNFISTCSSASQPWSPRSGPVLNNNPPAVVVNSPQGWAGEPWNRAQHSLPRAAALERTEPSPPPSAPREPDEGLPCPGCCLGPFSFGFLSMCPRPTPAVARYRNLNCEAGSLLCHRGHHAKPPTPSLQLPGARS
Epithelial discoidin domain-containing receptor 1 (Homo sapiens), sequence (Q08345 whole entry, the tested form may be a part): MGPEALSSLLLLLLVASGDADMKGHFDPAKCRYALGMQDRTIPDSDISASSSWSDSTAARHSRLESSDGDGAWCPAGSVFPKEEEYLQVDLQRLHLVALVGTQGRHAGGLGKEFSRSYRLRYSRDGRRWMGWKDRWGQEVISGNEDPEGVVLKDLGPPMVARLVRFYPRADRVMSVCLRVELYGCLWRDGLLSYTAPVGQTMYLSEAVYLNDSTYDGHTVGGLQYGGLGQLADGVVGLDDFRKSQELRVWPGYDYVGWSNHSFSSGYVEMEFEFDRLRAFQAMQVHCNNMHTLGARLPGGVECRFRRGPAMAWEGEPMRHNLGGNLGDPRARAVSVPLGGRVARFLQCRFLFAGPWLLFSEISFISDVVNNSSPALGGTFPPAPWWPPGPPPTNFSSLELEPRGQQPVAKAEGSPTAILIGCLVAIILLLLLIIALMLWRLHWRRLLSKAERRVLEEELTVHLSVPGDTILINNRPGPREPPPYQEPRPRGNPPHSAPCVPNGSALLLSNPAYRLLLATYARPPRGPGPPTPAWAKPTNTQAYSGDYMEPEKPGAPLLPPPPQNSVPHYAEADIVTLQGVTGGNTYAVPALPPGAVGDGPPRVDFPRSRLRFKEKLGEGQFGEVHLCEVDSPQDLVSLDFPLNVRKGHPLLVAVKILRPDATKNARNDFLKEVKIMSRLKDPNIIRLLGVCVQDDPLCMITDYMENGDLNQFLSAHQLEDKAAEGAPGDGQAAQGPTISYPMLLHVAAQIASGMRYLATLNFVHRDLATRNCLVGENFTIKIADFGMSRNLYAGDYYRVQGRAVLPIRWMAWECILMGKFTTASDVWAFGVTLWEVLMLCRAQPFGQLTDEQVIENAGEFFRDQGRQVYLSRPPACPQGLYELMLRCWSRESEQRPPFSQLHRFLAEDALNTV
Dual specificity testis-specific protein kinase 2, sequence (Q96S53 whole entry, the tested form may be a part): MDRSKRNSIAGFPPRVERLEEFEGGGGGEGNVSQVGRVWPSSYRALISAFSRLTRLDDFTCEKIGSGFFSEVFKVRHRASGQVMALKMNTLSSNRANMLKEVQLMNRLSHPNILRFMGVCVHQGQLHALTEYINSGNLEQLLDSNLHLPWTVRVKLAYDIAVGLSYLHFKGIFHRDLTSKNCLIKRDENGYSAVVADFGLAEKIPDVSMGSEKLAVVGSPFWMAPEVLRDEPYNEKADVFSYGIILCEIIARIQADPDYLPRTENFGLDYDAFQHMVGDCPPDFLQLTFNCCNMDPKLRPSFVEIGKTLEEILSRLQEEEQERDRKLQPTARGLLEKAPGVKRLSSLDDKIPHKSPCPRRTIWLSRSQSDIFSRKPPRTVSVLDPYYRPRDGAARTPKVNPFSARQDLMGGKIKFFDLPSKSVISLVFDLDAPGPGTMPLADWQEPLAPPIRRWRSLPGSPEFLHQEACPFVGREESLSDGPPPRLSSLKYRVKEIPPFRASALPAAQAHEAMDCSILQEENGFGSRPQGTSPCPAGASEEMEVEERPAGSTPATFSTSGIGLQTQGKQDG

By IC50 is commonly meant the concentration that gives 50% inhibition. With `CCNC(=O)Nc1ncc(-c2cc(-c3c(C)cc(OC)cc3C)nc(-c3cnccn3)n2)s1`, the IC50 in assay [1] was 455 nM; against LIM domain kinase 2 [5], 38 nM; in assay [8], 252 nM; with HT-1080 [10] it was more than 50000 nM; against LIM domain kinase 1 [17] it was 58 nM. Also, the inhibition result on LIM domain kinase 1 [2] and on LIM domain kinase 2 [12] was “Dose-dependent effect” throughout. Besides, the result in assay [3] was inactive. Besides, the result (in assay [4]; in [6]; in the assay on HT-1080 [7]; at LIM domain kinase 2 [9]; in [11]; in assay [13]) was Active. The result in [14], in assay [15] and in assay [16] was Active.
